Read-outs that look alike come from different tables or passages of the source.
Experiments:
healthy dogs = experiment: Study A dose-escalation protocol: tolerability, side and adverse effects; settings: for Animals with increases in AST in plasma: reversible
Source text: Control animals were the same dogs that, prior to treatment, received an intravenous injection of the placebo solution. After that, samples were collected for hematological and biochemical analyses, as described in Section 4.2, “Animal Selection and Care Procedures”.
Blood samples were collected for hematological (hemogram) and biochemical analyses, as described in Section 4.2, “Animal Selection and Care Procedures”. This study utilized a 6-step dose-escalation design for the treated dogs. […] Wash-out periods, ranging from 7 to 10 days, were observed between each dosage step. […] Blood samples were collected at various times, as specified in Section 4.4.1, “Peripheral Blood Sample Collection”. […] Peripheral blood samples for hematological and biochemical analyses were collected on days 2, 4, 7, and 10 [105].
Two separate clinical reports were used to document data obtained from clinical evaluations. A general clinical description was used to note the following information daily: whether the animal was alert, prostrate, depressed, apathetic or aggressive, drinking water, and eating food normally, as well as feces and urine evaluations and the presence of vomit. Every two days, we noted the following parameters: body temperature (°C, measured using a rectal thermometer), heart rate (beats/minute), respiratory rate (cycles/minute), external mucous membrane coloration (conjunctiva and oral), hydration (skin elasticity), superficial lymph node enlargement (submandibular and popliteal), stool consistency, presence of lesions or secretions in the eyes, presence of nasal secretion (quantity and type), coat status, presence of skin lesions and ectoparasites, temperament, presence of claudication, and coordination and balance. Hemograms were performed following blood collection. The following biochemical analyses were performed: total proteins, albumin (A), globulins (Gs), A/G ratio, total cholesterol, bilirubin, renal profile (urea and creatinine), and hepatic enzymatic profiles (ALP, ALT, AST, AF, and GGT).

[1] = Study B multiple administrations of 150 mg/m^2: 17-AAG pharmacokinetics in plasma (HPLC); assay type: in vivo, dogs; settings: dog, iv; for AUC(0-t) / Cmax / half-life: both sexes, plasma, dogs, mean ± SD; for AUC(0-t): 150 mg/m2, AUC 0–8 h, Study B; for Cmax / half-life: 150 mg/m2, Study B; for half-life: read-out: t ½ (converted); for Clearance / DV (distribution volume): in vivo
Protocol: Study B involved 9 healthy dogs (8 females and 1 male), including the 4 females from Study A after wash-out and upon confirmation of regular laboratory evaluations. […] Tolerability evaluations were performed via clinical examinations and blood sampling for laboratory evaluation after each treatment. For toxicity assessments, 4, 6, and 8 h after the final administration, the animals were euthanized for tissue collection and histopathological evaluation.
In Studies A and B, an intravenous catheter was placed in the cephalic vein of each animal’s right and left anterior limbs. […] Under both protocols, blood samples were centrifuged at 1500× g at 4 °C for 10 min.
For the mobile phase, acetonitrile (ACN, J.T.Baker®, Philadelphia, PA, USA) and water with 1% acetic acid (J.T.Baker®)were used. Briefly, aliquots of 200 µL of plasma or 100 µL of subcutaneous interstitial liquid were placed in a 1.5 mL microcentrifuge tube. Subsequently, 600 µL and 300 µL of ACN were added to all plasma and subcutaneous interstitial liquid samples, respectively. The mixture was vortexed for 30 s, followed by centrifugation at 3400× g for 10 min. Next, 500 µL of the plasma supernatant and 250 µL of the subcutaneous interstitial fluid were pipetted into a new vial. […] Data acquisition and processing were performed using LabSolutions software (Version 5.3).
Cmax, half-life (t ½), distribution volume, and clearance were also determined. Data were analyzed in Excel and WinNonlin using a mono-compartmental model.

[2] = Study A, healthy dogs n = 4, single IV dose 50 mg/m^2
[3] = Study A, healthy dogs n = 4, single IV dose 100 mg/m^2
[4] = Study A, healthy dogs n = 4, single IV dose 150 mg/m^2
[5] = Study A, healthy dogs n = 4, single IV dose 200 mg/m^2
[6] = Study A, healthy dogs n = 4, single IV dose 250 mg/m^2
[7] = 1st of three IV administrations of 150 mg/m^2 at 48 h intervals
[8] = 2nd of three IV administrations of 150 mg/m^2 at 48 h intervals
[9] = 3rd of three IV administrations of 150 mg/m^2 at 48 h intervals

C=CCNC1=C2C[C@@H](C)C[C@H](OC)[C@H](O)[C@@H](C)/C=C(\C)[C@H](OC(N)=O)[C@@H](OC)/C=C\C=C(/C)C(=O)NC(=CC1=O)C2=O [17-AAG, 17-(allylamino)-17-demethoxygeldanamycin]
Dogs with bloody diarrhea (healthy dogs; Study A, 200 mg/m^2): 75% | Dogs with bloody diarrhea (healthy dogs; Study A, 250 mg/m^2): 100% | Animals presenting nausea during administration (healthy dogs; Study A, dogs, 200 mg/m^2): all four animals | Animals presenting nausea during administration (healthy dogs; Study A, dogs, 250 mg/m^2): all four animals | Animals with ALT alteration (healthy dogs; [2]): 1 (25%) N (%) | Animals with AST alteration (healthy dogs; [2]): 0 N (%) | Animals with bloody diarrhea (healthy dogs; [2]): 0 N (%) | Animals with diarrhea (pasty feces) (healthy dogs; [2]): 0 N (%) | Animals with erythema (healthy dogs; [2]): 0 N (%) | Animals with hyperthermia (healthy dogs; [2]): 0 N (%) | Animals with nausea (healthy dogs; [2]): 0 N (%) | Animals with pruritus (healthy dogs; [2]): 0 N (%) | Animals with vomit (healthy dogs; [2]): 0 N (%) | Animals with ALT alteration (healthy dogs; [3]): 2 (50%) N (%) | Animals with AST alteration (healthy dogs; [3]): 2 (50%) N (%) | Animals with bloody diarrhea (healthy dogs; [3]): 0 N (%) | Animals with diarrhea (pasty feces) (healthy dogs; [3]): 1 (25%) N (%) | Animals with erythema (healthy dogs; [3]): 0 N (%) | Animals with hyperthermia (healthy dogs; [3]): 0 N (%) | Animals with nausea (healthy dogs; [3]): 0 N (%) | Animals with pruritus (healthy dogs; [3]): 0 N (%) | Animals with vomit (healthy dogs; [3]): 0 N (%) | Animals with ALT alteration (healthy dogs; [4]): 3 (75%) N (%) | Animals with AST alteration (healthy dogs; [4]): 2 (50%) N (%) | Animals with bloody diarrhea (healthy dogs; [4]): 0 N (%) | Animals with diarrhea (pasty feces) (healthy dogs; [4]): 1 (25%) N (%) | Animals with erythema (healthy dogs; [4]): 1 (25%) N (%) | Animals with hyperthermia (healthy dogs; [4]): 1 (25%) N (%) | Animals with nausea (healthy dogs; [4]): 0 N (%) | Animals with pruritus (healthy dogs; [4]): 1 (25%) N (%) | Animals with vomit (healthy dogs; [4]): 0 N (%) | Animals with ALT alteration (healthy dogs; [5]): 3 (75%) N (%) | Animals with AST alteration (healthy dogs; [5]): 4 (100%) N (%) | Animals with bloody diarrhea (healthy dogs; [5]): 3 (75%) N (%) | Animals with diarrhea (pasty feces) (healthy dogs; [5]): 1 (25%) N (%) | Animals with erythema (healthy dogs; [5]): 2 (50%) N (%) | Animals with hyperthermia (healthy dogs; [5]): 0 N (%) | Animals with nausea (healthy dogs; [5]): 4 (100%) N (%) | Animals with pruritus (healthy dogs; [5]): 3 (75%) N (%) | Animals with vomit (healthy dogs; [5]): 1 (25%) N (%) | Animals with ALT alteration (healthy dogs; [6]): 4 (100%) N (%) | Animals with AST alteration (healthy dogs; [6]): 4 (100%) N (%) | Animals with bloody diarrhea (healthy dogs; [6]): 4 (100%) N (%) | Animals with diarrhea (pasty feces) (healthy dogs; [6]): 1 (25%) N (%) | Animals with erythema (healthy dogs; [6]): 4 (100%) N (%) | Animals with hyperthermia (healthy dogs; [6]): 1 (25%) N (%) | Animals with nausea (healthy dogs; [6]): 4 (100%) N (%) | Animals with pruritus (healthy dogs; [6]): 4 (100%) N (%) | Animals with vomit (healthy dogs; [6]): 1 (25%) N (%) | Animals with increases in AST in plasma (healthy dogs; dogs, 100 mg/m^2): 50% | Animals with increases in AST in plasma (healthy dogs; dogs, 150 mg/m^2): 50% | Animals with increases in AST in plasma (healthy dogs; dogs, 200 mg/m^2): 100% | Animals with increases in AST in plasma (healthy dogs; dogs, 250 mg/m^2): 100% | maximum tolerable dose (healthy dogs; dogs, Study A, IV): 150 mg/m^2 | AUC(0-t) [1, 7]: 6350 ± 432 ng·h/mL | AUC(0-t) [1, 8]: 7050 ± 382 ng·h/mL | AUC(0-t) [1, 9]: 6850 ± 69 ng·h/mL | Cmax [1, 7]: 6310 ± 2200 ng/mL | Cmax [1, 8]: 5910 ± 1130 ng/mL | Cmax [1, 9]: 5250 ± 2780 ng/mL | half-life [1, 7]: 41.4 ± 13.2 min | half-life [1, 8]: 41.4 ± 14.4 min | half-life [1, 9]: 48.6 ± 21 min | Clearance ([1]; 1st administration): 0.023 ± 0.002 L/m^2/h | DV (distribution volume) ([1]; 1st administration): 0.029 ± 0.003 L/m^2 | Clearance ([1]; 2nd administration): 0.021 ± 0.001 L/m^2/h | DV (distribution volume) ([1]; 2nd administration): 0.030 ± 0.002 L/m^2 | Clearance ([1]; 3rd administration): 0.022 ± 0.002 L/m^2/h | DV (distribution volume) ([1]; 3rd administration): 0.033 ± 0.003 L/m^2

Reference: article PMC11206245 (Pharmaceuticals, 2024)
